The test concerns the target SIRT6 (Homo sapiens, UniProt Q8N6T7). As to the kind of experiment: SIRT6 deacetylation of H3K9ac peptide, fold-activation versus activator concentration. In kind it is biochemical. The following applies: for EC50: H3K9ac peptide 20 μM. How it is done:
(1A) Compound libraries BML-2803, BML-2800, and an additional set of 178 molecules were screened at 100 μM for their ability to stimulate SIRT6 (1 μM) deacetylation of H3K9ac peptide (20 μM) in the presence of 0.5 mM NAD^+. SIRT6 activity was measured by HPLC quantification of H3K9ac and deacetylated product (inset) and fold activations relative to DMSO control were determined and compiled. (1B) Fold-activation of SIRT6 (1 μM) determined in the presence of either 0-400 μM CL4, 0-150 μM TTNPB, 0-100 μM Lysophosphatidic acid (LPA), or 0-200 μM linoleoylglycine (LGly). Maximum fold-activation and EC50 determined by sigmoidal curve fit. (1C) Steady-state kinetic analysis of SIRT6 (1 μM) deacetylation was conducted with 0-250 μM H3K9ac peptide in the presence of 100 μM CL4, 50 μM TTNPB, 50 μM LPA, or 50 μM LGly. Constants Km, H3K9ac and kcat were determined by fitting data to Michaelis-Menten equation. (1D) Fold-activations of SIRT1 (0.1 μM), SIRT2 (0.2 μM), SIRT3 (1 μM), SIRT5 (2 μM), and SIRT6 (1 μM) determined in the presence of CL4 (100 μM), TTNPB (50 μM), and LPA (50 μM) relative to DMSO control against 20 μM H3K9ac peptide and 0.5 mM NAD^+. Mean values reported with error bars representing standard deviation of at least three replicates.
All sirtuin deacylation assays were carried out at 37° C. in 20 mM potassium phosphate pH 7.5 with 0.5 mM NAD^+, 10% DMSO, and 20 μM H3K9ac or H3K9myr peptides, unless otherwise noted in legend, and quenched by the addition of 2% TFA final. Steady-state reactions were constrained to less than 20% substrate turnover to prevent product inhibition. A variety of times were required to monitor SIRT6 deacetylation (2-60 minutes) under this restraint given the ability to strongly activate catalysis. In these cases, specific activities were determined and either reported as is or as fold-activation of specific activity. Deacylation reactions were analyzed by reversed phase high-performance liquid chromatography on a Kinetex C18 column (100 Å, 100×4.6 mm, 2.6 μm, Phenomenex) by monitoring the formation of the deacylated product at 214 nm. Deacetylation reactions were analyzed using a gradient of 33-100% B (30% acetonitrile with 0.05% TFA) in 8 min at 1.6 mL min^−1. Demyristoylation reactions were analyzed using a gradient of 3 to 100% B (acetonitrile with 0.05% TFA) in 10 min at 1.6 mL min^−1. The product and substrate peaks were quantified and ratio of these allowed for quantification of product formation. […]

Where [1] appears, read: SIRT6 1 μM, 0.5 mM NAD+, sigmoidal curve fit.

SIRT6, sequence (Q8N6T7 whole entry): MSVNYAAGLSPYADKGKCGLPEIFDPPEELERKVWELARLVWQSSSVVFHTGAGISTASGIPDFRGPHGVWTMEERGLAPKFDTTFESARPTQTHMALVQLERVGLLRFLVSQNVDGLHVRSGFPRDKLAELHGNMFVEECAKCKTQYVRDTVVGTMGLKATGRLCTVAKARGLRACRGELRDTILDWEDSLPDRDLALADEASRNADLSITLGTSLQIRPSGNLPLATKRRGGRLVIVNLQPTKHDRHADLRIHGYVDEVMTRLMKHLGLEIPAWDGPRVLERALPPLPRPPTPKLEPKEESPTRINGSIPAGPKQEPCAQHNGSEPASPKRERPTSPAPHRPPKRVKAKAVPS

As to `O=C(O)c1ccc2c(c1)C(=O)N(c1ccc(NC(=O)c3ccc(Cl)cc3Cl)c(Cl)c1)C2=O` [CL-4, 2-(3-chloro-4-(2,4-dichlorobenzamido)phenyl)-1,3-dioxoisoindoline-5-carboxylic acid], the “concentration required to stimulate 4-fold activation of SIRT6” value (SIRT6 1 μM, H3K9ac 20 μM, 0.5 mM NAD+) stood at 35 µM. Further, under setting [1], the concentration giving a half-maximal response (EC50) amounted to 97 ± 2 µM.

For the compound `O=C(O)c1ccc2c(c1)C(=O)N(c1ccc(N(C(=O)c3c(Cl)cc(Cl)cc3Cl)C(=O)c3c(Cl)cc(Cl)cc3Cl)c(Cl)c1)C2=O` [CL-5D, 2-(3-chloro-4-(2,4,6-trichloro-N-(2,4,6-trichlorobenzoyl)benzamido)phenyl)-1,3-dioxoisoindoline-5-carboxylic acid], the “SIRT6 deacetylase activity at high activator concentration” value (400 μM compound) was “inhibited”. The “increased potency over CL-4” value (by concentration required for 4-fold activation of SIRT6 deacetylase activity) is 7 fold.

Under setting [1], `CCCCC/C=C\C/C=C\CCCCCCCC(=O)NCC(=O)O` [N-Linoleoylglycine, linoleoyl-glycine, reference compound] had a concentration giving a half-maximal response (EC50) of 88 ± 4 µM. The “FAmax (maximum fold-activation)” value (SIRT6 1 μM, sigmoidal curve fit) is reported as 17 ± 0.8 fold.

By EC50 is commonly meant the concentration needed to bring the measured effect to its halfway point.

The values are drawn from patent publication US12390447B2, “Sirtuin 6 protein deacylase (SIRT6) activators” (Wisconsin Alumni Research Foundation, priority 2019, dated 2025).
